The values below come from US10136645B2, “Antimicrobial composition” (MicroBio Solutions Inc., priority 2015, dated 2018).

Series [1] deals with E. coli. Nature of the series: Minimal bactericidal time (MBT) at different contact times. In kind it is cell-based. To be noted: 1000 active ppm H2O2 alone. The procedure:
(§1) The antimicrobial effectiveness of the compositions of the present invention was tested. In this experiment, the test organism was E. coli and the final bacterial concentrations was 10^6 to 10^7 cfu/ml. Inoculum was contacted with either the combinations of LAE/H2O2 or individual, at different active concentration levels for a contact time of 30 seconds or more. The aliquots of this contaminated solution is used for determinate the minimal bactericidal concentration (MBC) for kill bacteria in the aliquots at 30 sec. contact time. Table 1 summarizes the efficacy of each biocide and their blends, and the Synergy index of each combination. In the same condition the minimal bactericidal time (MBT) was also evaluate with a combination of LAE:H2O2 (1:10) at different contact time. The table 2 summarizes the minimal bactericidal time for each biocide and a blend.

The next series relates to B. subtilis spore. Nature of the series: Spore germination inhibition in TSB with low concentration solution. In kind it is cell-based, Bacillus subtilis. To be noted: low concentration solution (1:200 dilution); 30° C., 72 hours, visible growth. The procedure: The spore contaminated media culture was then incubated at 30° C. for 72 hours for detect the germination of the spore by the presence of a visually detectable growth. Three replicates were completed per treatment.

Series [2] deals with Bacillus subtilis (ATCC#19659) spores. The series can be described thus: Sporicidal activity, quantitative suspension test EN 13704:2002. In kind it is cell-based. As for the experimental part:
The sporicidal activity of a given product is defined by its capacity to reduce at least by 3 log (cfu/ml) the amount of Bacillus subtilis bacterial spores in suspension, in the conditions established in the method.
The test organism in the form of a test suspension was prepared containing endospores from Bacillus subtilis (ATCC#19659). The endospores were specifically prepared from a culture grown on Nutrient agar, to which additional sporulation enhancements were added. Plates were harvested with sterile water and endospores were purified by repeated centrifugations and resuspensions in water. The final wash was in 70% w/w ethanol for 30 minutes, to ensure the death of all vegetative bacteria.

The conditions of series [3]: animal toxicological studies; cited from earlier work.
For series [4], the system named is E. coli. The series can be described thus: Minimal bactericidal concentration (MBC) at 30 sec. contact time. To be noted: alone or in blend, 10^6 to 10^7 cfu/ml. In kind it is cell-based. As for the experimental part: as §1
Series [5] has as its system E. coli on raw chicken piece. Nature of the series: Efficacy and residual growth inhibition on inoculated raw chicken pieces. In kind it is cell-based. The text has this: In the following example it is shown the residual effect of a combination of LAE/H2O2 compared with peracetic acid (PAA). The peracetic acid is often used in the food industry to sanitize food (fruit, vegetables, meat and poultry). The peracetic acid has a strong odor, is highly reactive and unstable when diluted and its use is limited to 80 ppm on food in the majority of countries worldwide regulation (e.g. US-FDA regulation 21CFR). For this example a solution of 200 ppm of lauric arginate with 1000 ppm of hydrogen peroxide is prepared and acidified to pH 2.5 using citric acid. The peracetic acid used is provided by Sigma-Aldrich.
Raw chicken pieces of the same size and weight are first soaked in an inoculating solution containing E. coli and incubated 30 minutes at 30° C. to allow the adhesion of bacteria on the surfaces of the sample. All samples are then soaked in a disinfectant solution (LAE/H2O2 or PAA) or a control (water) for a period of 30 seconds followed by a drying period drip for 2 minutes. Three replicates were completed per treatment. After the treatment, the samples were submerged in a neutralizing growth medium (D/E Neutralizing Broth) to analyze the populations of E. coli after the treatment or stored at room temperature in a sterile bags 24 hours before analyzed for populations of E. coli.

A value given as a limit tells only on which side of the number the result lay.

As to `OO` [Example H2O2, hydrogen peroxide], in the series on E. coli [1], the MBT is above 5 min. The “Spore germination inhibition activity” value in the series with B. subtilis spore is given as “No inhibition”. Besides, the “Average Log 10 cfu/ml reduction after 10 minutes contact time” value in series [2] (high concentration treatment solution (10% H2O2)) is given as above 3 Log 10 cfu/ml.
With `CCCCCCCCCCCC(=O)N[C@@H](CCCN=C(N)N)C(=O)OCC` [LAE, Lauric arginate ethyl ester], the “systemic No Observable Adverse Effect Levels (NOAEL)” value in series [3] is recorded as 15,000 mg/L. In the series with E. coli [4] (H2O2 concentration for complete kill), the “MBC (active ppm) H2O2” value was determined as 5000 active ppm. Besides, the “MBC (active ppm) LAE” value in the series with E. coli [4] (LAE concentration for complete kill) is recorded as above 350 active ppm. In addition, in series [2] (LAE alone, result not shown), the sporicidal activity entry is “no significant difference with the control”.
For the compound `CC(=O)OO` [PAA, peracetic acid], the “Average Log10 cfu/sample 2 min. after treatment” value in series [5] (30 seconds soak, 2 min drip drying, LAE/H2O2 200/1000 ppm pH 2.5) is on record as 0.56 Log10 cfu/sample. In addition, the “Log10 reduction vs control 2 min. after treatment” value in series [5] (30 seconds soak, LAE/H2O2 200/1000 ppm pH 2.5, PAA 80 ppm) turned out to be 3.81 Log10. For the same compound, the “Average Log10 cfu/sample 24 hours after treatment” value in series [5] (stored 24 hours at room temperature, LAE/H2O2 200/1000 ppm, PAA 80 ppm) is given as 2.51 Log10 cfu/sample.
